Data as given in patent publication US9169209B2, “Compounds and compositions for the inhibition of NAMPT” (FORMA TM, LLC, priority 2011, dated 2015).

Experiments:
[1] = system: A2780 cells; assay: In-Vitro Cell Proliferation Assay (SRB, 72 hours); assay type: cell-based; details: Homo sapiens, A2780, 72 h, A2780 cells, 72 hours, sulforhodamine B; read-out: A2780 IC50
In short: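 Plated cells exposed to serially diluted compound (0.1% DMSO final) for 72 h at 37 °C, 5% CO2. Viability by SRB staining after TCA fixation, absorbance 570 nm, media-only background subtracted; % inhibition relative to DMSO-treated cells, interpolated between bracketing concentrations.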

[2] = target: NAMPT (Homo sapiens (Human), UniProt P43490); assay: Biochemical Inhibition Assay (NAMPT enzymatic reaction, NMN quantified by mass spectrometry); details: recombinant His-tagged NAMPT, 33 nM; 1 μM NAM; read-out: Biochem IC50
In short: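 His-tagged human NAMPT from E. coli was preincubated 15 min at RT with compound in Hepes pH 7.5/MgCl2 buffer. Reaction ran 30 min at RT with 1 μM NAM, 100 μM PRPP and 2.5 mM ATP, then was quenched with formic acid. NMN was measured by RapidFire MS, normalized to L-cystathionine, and IC50 derived from % inhibition.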

NAMPT, sequence (P43490 whole entry): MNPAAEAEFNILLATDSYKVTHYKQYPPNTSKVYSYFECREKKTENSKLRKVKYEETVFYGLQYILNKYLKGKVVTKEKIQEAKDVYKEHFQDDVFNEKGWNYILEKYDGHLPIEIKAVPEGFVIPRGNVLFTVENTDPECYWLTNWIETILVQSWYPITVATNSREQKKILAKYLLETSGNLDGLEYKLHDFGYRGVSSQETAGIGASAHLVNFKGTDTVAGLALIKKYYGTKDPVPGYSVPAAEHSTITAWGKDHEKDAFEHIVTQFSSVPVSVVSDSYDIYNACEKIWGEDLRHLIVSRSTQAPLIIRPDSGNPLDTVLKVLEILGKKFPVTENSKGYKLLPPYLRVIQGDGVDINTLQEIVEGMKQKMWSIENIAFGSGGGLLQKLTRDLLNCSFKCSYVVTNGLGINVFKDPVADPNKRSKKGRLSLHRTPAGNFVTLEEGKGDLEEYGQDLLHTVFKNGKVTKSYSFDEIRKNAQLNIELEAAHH

SMILES | IC50 [1] | IC50 [2]
Cc1cc(F)cc(S(=O)(=O)c2ccc(NC(=O)/C=C/c3cccnc3)cc2)c1 [(2E)-N-{4-[(3-fluoro-5-methylbenzene)sulfonyl]phenyl}-3-(pyridin-3-yl)prop-2-enamide] | 108 nM | 17.5 nM
O=C(/C=C/c1cccnc1)Nc1ccc(S(=O)(=O)c2cccc(F)c2)cc1 [(2E)-N-{4-[(3-fluorobenzene)sulfonyl]phenyl}-3-(pyridin-3-yl)prop-2-enamide] | 103 nM | 66.4 nM
CS(=O)(=O)Nc1cccc(S(=O)(=O)c2ccc(NC(=O)/C=C/c3cccnc3)cc2)c1 [(2E)-N-{4-[(3-methanesulfonamidobenzene)sulfonyl]phenyl}-3-(pyridin-3-yl)prop-2-enamide] | 100 to 1000 nM | 7.5 nM
CS(=O)(=O)c1cccc(S(=O)(=O)c2ccc(NC(=O)/C=C/c3cccnc3)cc2)c1 [(2E)-N-{4-[(3-methanesulfonylbenzene)sulfonyl]phenyl}-3-(pyridin-3-yl)prop-2-enamide] | 100 to 1000 nM | 14.3 nM
COc1cccc(S(=O)(=O)c2ccc(NC(=O)/C=C/c3cccnc3)cc2)c1 [(2E)-N-{4-[(3-methoxybenzene)sulfonyl]phenyl}-3-(pyridin-3-yl)prop-2-enamide] | 114 nM | 85.7 nM
O=C(/C=C/c1cccnc1)Nc1ccc(S(=O)(=O)c2cccc(-c3ccccc3)c2)cc1 [(2E)-N-{4-[(3-phenylbenzene)sulfonyl]phenyl}-3-(pyridin-3-yl)prop-2-enamide] | 100 to 1000 nM | 25.4 nM
CCCOc1cccc(S(=O)(=O)c2ccc(NC(=O)/C=C/c3cccnc3)cc2)c1 [(2E)-N-{4-[(3-propoxybenzene)sulfonyl]phenyl}-3-(pyridin-3-yl)prop-2-enamide] | 86.8 nM | 21.6 nM
CCOc1cc(Cl)ccc1S(=O)(=O)c1ccc(NC(=O)/C=C/c2cccnc2)cc1 [(2E)-N-{4-[(4-chloro-2-ethoxybenzene)sulfonyl]phenyl}-3-(pyridin-3-yl)prop-2-enamide] | 9.68 nM | 4.2 nM
COc1cc(Cl)ccc1S(=O)(=O)c1ccc(NC(=O)/C=C/c2cccnc2)cc1 [(2E)-N-{4-[(4-chloro-2-methoxybenzene)sulfonyl]phenyl}-3-(pyridin-3-yl)prop-2-enamide] | 109 nM | 7.3 nM
COc1cc(S(=O)(=O)c2ccc(NC(=O)/C=C/c3cccnc3)cc2)ccc1Cl [(2E)-N-{4-[(4-chloro-3-methoxybenzene)sulfonyl]phenyl}-3-(pyridin-3-yl)prop-2-enamide] | 72 nM | 26.3 nM
O=C(/C=C/c1cccnc1)Nc1ccc(S(=O)(=O)c2ccc(Cl)cc2)cc1 [(2E)-N-{4-[(4-chlorobenzene)sulfonyl]phenyl}-3-(pyridin-3-yl)prop-2-enamide] | 100 to 1000 nM | 43.5 nM
CCOc1ccc(S(=O)(=O)c2ccc(NC(=O)/C=C/c3cccnc3)cc2)cc1F [(2E)-N-{4-[(4-ethoxy-3-fluorobenzene)sulfonyl]phenyl}-3-(pyridin-3-yl)prop-2-enamide] | 175 nM | 34.1 nM
CCOc1ccc(S(=O)(=O)c2ccc(NC(=O)/C=C/c3cccnc3)cc2)cc1 [(2E)-N-{4-[(4-ethoxybenzene)sulfonyl]phenyl}-3-(pyridin-3-yl)prop-2-enamide] | 100 to 1000 nM | 27.4 nM
Cc1cc(S(=O)(=O)c2ccc(NC(=O)/C=C/c3cccnc3)cc2)ccc1F [(2E)-N-{4-[(4-fluoro-3-methylbenzene)sulfonyl]phenyl}-3-(pyridin-3-yl)prop-2-enamide] | 100 to 1000 nM | 21.9 nM
O=C(/C=C/c1cccnc1)Nc1ccc(S(=O)(=O)c2ccc(F)cc2)cc1 [(2E)-N-{4-[(4-fluorobenzene)sulfonyl]phenyl}-3-(pyridin-3-yl)prop-2-enamide] | 158 nM | 2 nM
CS(=O)(=O)c1ccc(S(=O)(=O)c2ccc(NC(=O)/C=C/c3cccnc3)cc2)cc1 [(2E)-N-{4-[(4-methanesulfonylbenzene)sulfonyl]phenyl}-3-(pyridin-3-yl)prop-2-enamide] | 100 to 1000 nM | 11.4 nM
